Tested on: MDK
Test: Cytotoxicity assay (sulforhodamine staining, CC50)
Format: cell-based
Conditions: MDK cells; 4 days incubation; concentration reducing cell number by 50%; preliminary results
Protocol: Cells are seeded at a rate of between 5×10^3 and 5×10^4/well into 96-well plates in growth medium overnight at 37° C. in a humidified CO2 (5%) atmosphere. New growth medium containing serial dilutions of the drugs is then added. After incubation for 4 days, cultures are fixed in 50% TCA and stained with sulforhodamine. The optical density was read at 550 nm. The cytotoxic concentration was expressed as the concentration required to reduce the cell number by 50% (CC50).

`C[C@]1(CO)O[C@@H](n2ccc(=S)[nH]c2=O)[C@H](O)[C@@H]1O` [β-D-4′-CH3-ribo-4-thioU] and `C[C@]1(CO)O[C@@H](n2ccc(N)nc2=O)[C@H](O)[C@@H]1O` [β-D-4′-CH3-riboC] cannot be ordered by CC50: > 250 µM for the first, > 250 µM for the second.

`CC1(CO)OC(n2cc(F)c(=O)[nH]c2=O)C(O)C1O` [β-D-4′-CH3-ribo-5-fluoroU] and `Cc1cn([C@@H]2O[C@](C)(CO)[C@@H](O)[C@H]2O)c(=O)[nH]c1=O` [β-D-4′-CH3-riboT] cannot be ordered by CC50: > 167 µM for the first, > 250 µM for the second.

`C[C@]1(CO)O[C@@H](n2cnc3c(N)ncnc32)[C@H](O)[C@@H]1O` [β-D-4′-CH3-riboA] and `C[C@]1(CO)O[C@@H](n2cnc3c(=O)[nH]c(N)nc32)[C@H](O)[C@@H]1O` [β-D-4′-CH3-riboG] cannot be ordered by CC50: > 250 µM for the first, > 250 µM for the second.

Reference: patent publication US9186369B2, “Purine nucleoside analogues for treating flaviviridae including hepatitis C” (Idenix Pharmaceuticals, Inc., priority 2003, dated 2015)
